Results: EP4755886A1 (Chengdu Chipscreen Pharmaceutical Ltd., priority 2023, dated 2025)

test system: MTAP^-/- HCT-116 cells; test: Cell proliferation (MTS), MTAP-/- HCT-116; type: cell-based, human; settings: Homo sapiens, 240 h; MTAP-/- HCT-116, 10 days with compound, MTS reading; read-out: IC50 HCT116 MTAP-/-
Description: The colon cancer cell strain HCT-116 (purchased from Nanjing Cobioer) was co-transfected with the gene editing tool CRISPR/Cas9 and sgRNA, and the MTAP^-/- HCT-116 cell strain with biallelic inactivation of MTAP was obtained by assays such as Western Blotting and Sanger sequencing. The MTAP^-/- HCT-116 cell strain was used for compound selectivity screening and evaluation based on the synergistic mechanism of MTAP deletion and PRMT5, including a symmetric dimethylarginine (SDMA) level test, a cell proliferation test, and the like.
On day 0, MTAP^-/- HCT-116 cells or wild-type HCT-116 cells were added to a 96-well cell culture plate (Corning, 3599) at 100 cells/well, and the plate was incubated in an incubator at 37 °C with 5% CO2. The compound was diluted in a 3-fold gradient with DMSO (Sigma, D5879) (initial concentration: 20 µM, 3-fold dilution, 8 concentration points in total). On day 1, the compound was diluted to multiple concentration points, and the cells were treated separately and incubated in the incubator at 37 °C with 5% CO2 for another 10 days. On Day 11, 20 µL of MTS (CellTiter 96® AQueous One Solution Cell Proliferation Assay) (Promega, G3581) was added to each well. […] In the formula, Y represents the inhibition rate, X represents the logarithm of the compound concentration, Top represents the maximum response (the inhibition rate at the maximum compound concentration), Bottom represents the baseline response (the inhibition rate where the compound concentration was 0), Hill Slope represents the slope of the IC50 curve, and IC50 represents the half maximal inhibitory concentration.

Compound	IC50 [nM]
CN(C(=O)c1cc2c3c(c(N)nc2cc1F)COC3)[C@@H]1COc2cc(C#Cc3cnn(C)c3)ccc21 [Compound 39A, (S)-4-amino-7-fluoro-N-methyl-N-(6-((1-methyl-1H-pyrazol-4-yl)ethynyl)-2,3-dihydrobenzofuran-3-yl)-1,3-dihydrofuro[3,4-c]quinoline-8-carboxamide]	11
CC(C)n1cc(C#Cc2ccc3c(c2)OCC3N(C)C(=O)c2cc3c(cc2Cl)nc(N)c2cnn(C)c23)cn1 (centres unmarked) [Compound 14, 4-amino-7-chloro-N-(6-((1-isopropyl-1H-pyrazol-4-yl)ethynyl)-2,3-dihydrobenzof uran-3-yl)-N,1-dimethyl-1H-pyrazolo[4,3-c]quinoline-8-carboxamide]	9
CCn1cc(C#Cc2ccc3c(c2)OCC3N(C)C(=O)c2cc3c(cc2Cl)nc(N)c2cnn(C)c23)cn1 (centres unmarked) [Compound 15, 4-amino-7-chloro-N-(6-((1-ethyl-1H-pyrazol-4-yl)ethynyl)-2,3-dihydrobenzofuran-3-yl)-N,1-dimethyl-1H-pyrazolo[4,3-c]quinoline-8-carboxamide]	4.8
Cc1nn(C)cc1C#Cc1ccc2c(c1)OC[C@H]2N(C)C(=O)c1cc2c(cc1Cl)nc(N)c1cnn(C)c12 [Compound 26A, (S)-4-amino-7-chloro-N-(6-((1,3-dimethyl-1H-pyrazol-4-yl)ethynyl)-2,3-dihydrobenzofuran-3-yl)-N,1-dimethyl-1H-pyrazolo[4,3-c]quinoline-8-carboxamide]	0.9
Cc1nn(C)cc1C#Cc1ccc2c(c1)OCC2N(C)C(=O)c1cc2c(cc1Cl)nc(N)c1cnn(C)c12 (centres unmarked) [Compound 26, 4-amino-7-chloro-N-(6-((1,3-dimethyl-1H-pyrazol-4-yl)ethynyl)-2,3-dihydrobenzofuran-3-yl)-N,1-dimethyl-1H-pyrazolo[4,3-c]quinoline-8-carboxamide]	2.8

Other lines, results leading:

IC50 [nM]	Compound
1	CN1CCn2c(C#Cc3ccc4c(c3)OC[C@H]4N(C)C(=O)c3cc4c(cc3Cl)nc(N)c3cnn(C)c34)cnc2C1 [Compound 51A, (S)-4-amino-7-chloro-N,1-dimethyl-N-(6-((7-methyl-5,6,7,8-tetrahydroimidazo[1,2-a]pyrazin-3-yl)ethynyl)-2,3-dihydrobenzofuran-3-yl)-1H-pyrazolo[4,3-c]quinoline-8-carboxamide]
11	CN(C(=O)c1cc2c3c(c(N)nc2cc1Cl)COC3)[C@@H]1COc2cc(C#Cc3cnn(C(F)F)c3)ccc21 [Compound 73A, (S)-4-amino-7-chloro-N-(6-((1-(difluoromethyl)-1H-pyrazol-4-yl)ethynyl)-2,3-dihydrobenzofuran-3-yl)-N-methyl-1,3-dihydrofuro[3,4-c]quinoline-8-carboxamide]
3	Cc1ncccc1C#Cc1ccc2c(c1)OC[C@H]2N(C)C(=O)c1cc2c(cc1Cl)nc(N)c1cnn(C)c12 [Compound 64A, (S)-4-amino-7-chloro-N,1-dimethyl-N-(6-((2-methylpyridin-3-yl)ethynyl)-2,3-dihydrobenzofuran-3-yl)-1H-pyrazolo[4,3-c]quinoline-8-carboxamide]
11	CN(C(=O)c1cc2c(cc1F)nc(N)c1cnn(C)c12)[C@@H]1COc2cc(C#Cc3ccc(C4CC4)nc3)ccc21 [Compound 77A, (S)-4-amino-N-(6-((6-cyclopropylpyridin-3-yl)ethynyl)-2,3-dihyrobenzofuran-3-yl)-7-fluoro-N,1-dimethyl-1H-pyrazolo[4,3-c]quinoline-8-carboxamide]
5.5	CN(C(=O)c1cc2c(cc1F)nc(N)c1cnn(C)c12)[C@@H]1COc2cc(C#Cc3cccnc3F)ccc21 [Compound 54A, (S)-4-amino-7-fluoro-N-(6-((2-fluoropyridin-3-yl)ethynyl)-2,3-dihydrobenzofuran-3-yl)-N,1-dimethyl-1H-pyrazolo[4,3-c]quinoline-8-carboxamide]
6	CN(C(=O)c1cc2c(cc1F)nc(N)c1cnn(C)c12)C1COCc2cc(C#Cc3cnn(C)c3)ccc21 (centres unmarked) [Compound 72, 4-amino-7-fluoro-N,1-dimethyl-N-(7-((1-methyl-1H-pyrazol-4-yl)ethynyl)isochroman-4-yl)-1H-pyrazolo[4,3-c]quinoline-8-carboxamide]
